Laboratory results as given in PubChem BioAssay AID1745844 (Carcinogenic Potency Database (CPDB), 2022).
Where “and” joins values, the source holds several entries; their conditions need not be identical. Equal values may be shown once. Calls of active or inactive are those of the source. How the calls were made is not given here.

System: rodent lifetime carcinogenesis bioassay, tumor incidence TD50
Assay: chronic cancer bioassays in animals – CPDB, compiled studies (AID 1745844)

Structure (SMILES): Cc1cc(C)c(N)cc1C
- TD50 (mouse, strain B6C3F1, females, in feed, site: any site (literature study), lesion: several types, types named in the paper, dosed 101 weeks, study length 101 weeks): 22.4 mg/kg/day
- TD50 (mouse, strain B6C3F1, females, in feed, site: liver, lesion: hepatocellular adenoma + hepatocellular carcinoma + neoplastic nodule, dosed 101 weeks, study length 101 weeks): 6.13 mg/kg/day
- TD50 (mouse, strain B6C3F1, females, in feed, site: liver, lesion: hepatocellular carcinoma, dosed 101 weeks, study length 101 weeks): 6.13 mg/kg/day
- TD50 (mouse, strain B6C3F1, females, in feed, site: lung, lesion: alveolar/bronchiolar adenoma + alveolar/bronchiolar carcinoma, dosed 101 weeks, study length 101 weeks): 47.6 mg/kg/day
- TD50 (mouse, strain B6C3F1, males, in feed, site: any site (literature study), lesion: several types, types named in the paper, dosed 101 weeks, study length 101 weeks): 52.5 mg/kg/day (inactive)
- TD50 (mouse, strain B6C3F1, males, in feed, site: liver, lesion: hepatocellular adenoma + hepatocellular carcinoma + neoplastic nodule, dosed 101 weeks, study length 101 weeks): 14.4 mg/kg/day
- TD50 (mouse, strain CD-1 HaM/ICR, females, in feed, site: any site (literature study), lesion: several types, types named in the paper, dosed 77 weeks, study length 98 weeks): 47.2 mg/kg/day
- TD50 (mouse, strain CD-1 HaM/ICR, females, in feed, site: liver, lesion: hepatoma, dosed 77 weeks, study length 98 weeks): 62.9 mg/kg/day and 62.3 mg/kg/day
- TD50 (mouse, strain CD-1 HaM/ICR, females, in feed, site: liver, lesion: several types, types named in the paper, dosed 77 weeks, study length 98 weeks): 60.4 mg/kg/day
- TD50 (mouse, strain CD-1 HaM/ICR, females, in feed, site: lung, lesion: several types, types named in the paper, dosed 77 weeks, study length 98 weeks): 52.8 mg/kg/day and 64.7 mg/kg/day
- TD50 (mouse, strain CD-1 HaM/ICR, males, in feed, site: all sites, lesion: all vascular tumors, dosed 77 weeks, study length 98 weeks): 260 mg/kg/day
- TD50 (mouse, strain CD-1 HaM/ICR, males, in feed, site: any site (literature study), lesion: several types, types named in the paper, dosed 77 weeks, study length 98 weeks): 40.3 mg/kg/day
- TD50 (mouse, strain CD-1 HaM/ICR, males, in feed, site: liver, lesion: hepatoma, dosed 77 weeks, study length 98 weeks): 46.2 mg/kg/day and 44.2 mg/kg/day
- TD50 (mouse, strain CD-1 HaM/ICR, males, in feed, site: liver, lesion: several types, types named in the paper, dosed 77 weeks, study length 98 weeks): 35.4 mg/kg/day
- TD50 (mouse, strain CD-1 HaM/ICR, males, in feed, site: lung, lesion: several types, types named in the paper, dosed 77 weeks, study length 98 weeks): 40 mg/kg/day and 63 mg/kg/day
- TD50 (rat, strain Charles River CD (Sprague-Dawley), males, in feed, site: any site (literature study), lesion: several types, types named in the paper, dosed 77 weeks, study length 98 weeks): 37.2 mg/kg/day
- TD50 (rat, strain Charles River CD (Sprague-Dawley), males, in feed, site: liver, lesion: hepatoma, dosed 77 weeks, study length 98 weeks): 98.5 mg/kg/day
- TD50 (rat, strain Charles River CD (Sprague-Dawley), males, in feed, site: liver, lesion: several types, types named in the paper, dosed 77 weeks, study length 98 weeks): 47.9 mg/kg/day
- carcinogen call (rat, strain Charles River CD (Sprague-Dawley), males, in feed, site: subcutaneous tissue, lesion: several types, types named in the paper, dosed 77 weeks, study length 98 weeks): positive
- TD50 (rat, strain Fischer 344, females, in feed, site: any site (literature study), lesion: several types, types named in the paper, dosed 101 weeks, study length 101 weeks): 396 mg/kg/day
- TD50 (rat, strain Fischer 344, females, in feed, site: liver + lung, lesion: hepatocellular carcinoma + neoplastic nodule + alveolar/bronchiolar adenoma + alveolar/bronchiolar carcinoma, dosed 101 weeks, study length 101 weeks): 20.4 mg/kg/day
- TD50 (rat, strain Fischer 344, females, in feed, site: liver, lesion: hepatocellular adenoma + hepatocellular carcinoma + neoplastic nodule, dosed 101 weeks, study length 101 weeks): 27.2 mg/kg/day
- TD50 (rat, strain Fischer 344, females, in feed, site: liver, lesion: hepatocellular carcinoma + neoplastic nodule, dosed 101 weeks, study length 101 weeks): 27.2 mg/kg/day
- TD50 (rat, strain Fischer 344, females, in feed, site: liver, lesion: hepatocellular carcinoma, dosed 101 weeks, study length 101 weeks): 142 mg/kg/day
- TD50 (rat, strain Fischer 344, females, in feed, site: lung, lesion: alveolar/bronchiolar adenoma + alveolar/bronchiolar carcinoma, dosed 101 weeks, study length 101 weeks): 88.1 mg/kg/day
- TD50 (rat, strain Fischer 344, males, in feed, site: any site (literature study), lesion: several types, types named in the paper, dosed 101 weeks, study length 101 weeks): 138 mg/kg/day
- TD50 (rat, strain Fischer 344, males, in feed, site: liver, lesion: bile duct carcinoma, dosed 101 weeks, study length 101 weeks): 268 mg/kg/day
- TD50 (rat, strain Fischer 344, males, in feed, site: liver, lesion: hepatocellular adenoma + hepatocellular carcinoma + neoplastic nodule, dosed 101 weeks, study length 101 weeks): 43.8 mg/kg/day
- TD50 (rat, strain Fischer 344, males, in feed, site: liver, lesion: hepatocellular carcinoma + neoplastic nodule, dosed 101 weeks, study length 101 weeks): 43.8 mg/kg/day
- TD50 (rat, strain Fischer 344, males, in feed, site: liver, lesion: hepatocellular carcinoma, dosed 101 weeks, study length 101 weeks): 71.8 mg/kg/day
- TD50 (rat, strain Fischer 344, males, in feed, site: lung, lesion: alveolar/bronchiolar adenoma + alveolar/bronchiolar carcinoma, dosed 101 weeks, study length 101 weeks): 180 mg/kg/day

Structure (SMILES): O=NN1CCCCCC1
- TD50 (mouse, strain BALB/c, females, by gavage, site: esophagus, lesion: squamous-cell papilloma, dosed 30 weeks, study length 49 weeks): 19.7 mg/kg/day
- TD50 (mouse, strain BALB/c, females, by gavage, site: liver, lesion: several types, types named in the paper, dosed 30 weeks, study length 49 weeks): 0.797 mg/kg/day
- TD50 (mouse, strain BALB/c, females, by gavage, site: lung, lesion: several types, types named in the paper, dosed 30 weeks, study length 49 weeks): 7.44 mg/kg/day
- TD50 (mouse, strain BALB/c, females, by gavage, site: nasal mucosa, lesion: several types, types named in the paper, dosed 30 weeks, study length 49 weeks): 4.5 mg/kg/day
- TD50 (mouse, strain Charles River CD1, females, by gavage, site: esophagus, lesion: squamous-cell papilloma, dosed 30 weeks, study length 62 weeks): 12.7 mg/kg/day
- TD50 (mouse, strain Charles River CD1, females, by gavage, site: forestomach, lesion: several types, types named in the paper, dosed 30 weeks, study length 62 weeks): 5.65 mg/kg/day
- TD50 (mouse, strain Charles River CD1, females, by gavage, site: liver, lesion: several types, types named in the paper, dosed 30 weeks, study length 62 weeks): 0.746 mg/kg/day
- TD50 (mouse, strain Charles River CD1, females, by gavage, site: lung, lesion: several types, types named in the paper, dosed 30 weeks, study length 62 weeks): 2.71 mg/kg/day
- TD50 (mouse, strain Charles River CD1, females, by gavage, site: nasal mucosa, lesion: one or several types, types not named, dosed 30 weeks, study length 62 weeks): 26 mg/kg/day
- TD50 (mouse, strain NZO/BlGd, females, in drinking water, site: esophagus, lesion: several types, types named in the paper, dosed 32 weeks, study length 74 weeks): 0.725 mg/kg/day
- TD50 (mouse, strain NZO/BlGd, females, in drinking water, site: liver, lesion: hepatocellular carcinoma, dosed 32 weeks, study length 74 weeks): 3.21 mg/kg/day
- TD50 (mouse, strain NZO/BlGd, females, in drinking water, site: oropharynx, lesion: several types, types named in the paper, dosed 32 weeks, study length 74 weeks): 6.37 mg/kg/day
- TD50 (mouse, strain NZO/BlGd, females, in drinking water, site: stomach, glandular, lesion: several types, types named in the paper, dosed 32 weeks, study length 74 weeks): 4.05 mg/kg/day
- TD50 (mouse, strain NZO/BlGd, females, in drinking water, site: stomach, squamous, lesion: several types, types named in the paper, dosed 32 weeks, study length 74 weeks): 0.415 mg/kg/day
- TD50 (mouse, strain NZO/BlGd, males, in drinking water, site: esophagus, lesion: several types, types named in the paper, dosed 32 weeks, study length 60 weeks): 0.313 mg/kg/day
- TD50 (mouse, strain NZO/BlGd, males, in drinking water, site: liver, lesion: hepatocellular carcinoma, dosed 32 weeks, study length 60 weeks): 8.03 mg/kg/day
- TD50 (mouse, strain NZO/BlGd, males, in drinking water, site: lung, lesion: several types, types named in the paper, dosed 32 weeks, study length 60 weeks): 1.93 mg/kg/day
- TD50 (mouse, strain NZO/BlGd, males, in drinking water, site: oropharynx, lesion: several types, types named in the paper, dosed 32 weeks, study length 60 weeks): 1.41 mg/kg/day
- TD50 (mouse, strain NZO/BlGd, males, in drinking water, site: stomach, glandular, lesion: several types, types named in the paper, dosed 32 weeks, study length 60 weeks): 3.23 mg/kg/day
- TD50 (mouse, strain NZO/BlGd, males, in drinking water, site: stomach, squamous, lesion: several types, types named in the paper, dosed 32 weeks, study length 60 weeks): 0.448 mg/kg/day
- TD50 (mouse, strain SENCAR, females, by gavage, site: esophagus, lesion: squamous-cell papilloma, dosed 30 weeks, study length 67 weeks): 6.47 mg/kg/day
- TD50 (mouse, strain SENCAR, females, by gavage, site: forestomach, lesion: several types, types named in the paper, dosed 30 weeks, study length 67 weeks): 2.25 mg/kg/day
- TD50 (mouse, strain SENCAR, females, by gavage, site: liver, lesion: several types, types named in the paper, dosed 30 weeks, study length 67 weeks): 1.92 mg/kg/day
- TD50 (mouse, strain SENCAR, females, by gavage, site: lung, lesion: several types, types named in the paper, dosed 30 weeks, study length 67 weeks): 0.783 mg/kg/day
- TD50 (mouse, strain SENCAR, females, by gavage, site: nasal mucosa, lesion: several types, types named in the paper, dosed 30 weeks, study length 67 weeks): 6.47 mg/kg/day

Structure (SMILES): CC(C)(C)c1cc(C(C)(C)C)c(O)c(C(C)(C)C)c1
- carcinogen call (rat, strain Wistar, females, in feed, site: liver, lesion: one or several types, types not named, dosed 52 weeks, study length 52 weeks): negative (inactive)
- carcinogen call (rat, strain Wistar, females, in feed, site: liver, lesion: one or several types, types not named, dosed 78 weeks, study length 78 weeks): negative (inactive)
- carcinogen call (rat, strain Wistar, females, in feed, site: liver, lesion: one or several types, types not named, dosed 104 weeks, study length 104 weeks): negative (inactive)
- carcinogen call (rat, strain Wistar, males, in feed, site: liver, lesion: one or several types, types not named, dosed 52 weeks, study length 52 weeks): negative (inactive)
- carcinogen call (rat, strain Wistar, males, in feed, site: liver, lesion: one or several types, types not named, dosed 78 weeks, study length 78 weeks): negative (inactive)
- carcinogen call (rat, strain Wistar, males, in feed, site: liver, lesion: one or several types, types not named, dosed 104 weeks, study length 104 weeks): negative (inactive)
